Measured values from patent publication US12521379B2, “Use of FK506 for the treatment of pulmonary arterial hypertension” (The Board of Trustees of the Leland Stanford Junior …, priority 2011, dated 2026).

How the values were obtained:
[1] = system: WBC count, nuclear NFATc2; experiment: Immunosuppressive effect at low dose: WBC count and nuclear NFATc2; assay type: in vivo; settings: low dose of 0.2 ng/ml
[2] = system: SUGEN and chronic hypoxia induced pulmonary hypertension; experiment: Reversal of SUGEN and 3-week chronic hypoxia induced pulmonary hypertension in rats; assay type: in vivo, rat; settings: n=4
Method: (§1) 3600 FDA approved drugs and bioactive compounds were screened for their ability to activate BMP signaling, using a C2C12 mouse myoblast cell line stably transfected with a reporter plasmid expressing a BMP response element (BRE) from the Id1 promoter fused to the luciferase-gene (BRE-luc). Whether the best qHTS-BMPRII activator can induce Smad phosphorylation (phospho), Id1 expression and promote PAEC survival and tube formation was determined using BMP4 as a positive control. Whether the qHTS-BMPRII-activator would prevent PAH in mice with a conditional deletion in BMPRII in ECs (BMPRII-SCL-CreERT) that develop exaggerated PAH after 3 weeks of hypoxia (10% O2) was determined. In order to assess whether the BMPRII activator could also reverse PAH, we used 2 models of severe experimental PH in rats: 1. Monocrotaline induced pulmonary hypertension with development of severe medial hypertrophy of the pulmonary arteries 3 weeks after injection. 2. SUGEN (VEGF-Receptor blocker) and 3-week chronic hypoxia induced pulmonary hypertension with development of neointima formation in pulmonary arteries 8 weeks after initiation of the stimulus. Both groups were treated with FK-506 for 3 weeks via sc osmotic pump (0.05 mg/kg/d) after PAH and remodeling of the pulmonary arteries was established. The serum level of FK-506 in mice and rats was aimed to be 0.2 ng/ml.

[3] = system: mice with a conditional deletion in BMPRII in ECs (BMPRII-SCL-CreERT); experiment: Prevention of PAH in mice with conditional deletion of BMPRII in ECs, 3 weeks of hypoxia; assay type: in vivo, mouse; settings: 0.05 mg/kg/d, 3-week preventive treatment, 3 weeks of hypoxia, n=5
Method: as §1

[4] = as above; assay type: in vivo, mouse; settings: mouse, serum, 0.05 mg/kg/day; mice, 0.05 mg/kg/d; read-out: serum levels
Method: as §1

[5] = system: monocrotaline induced pulmonary hypertension; experiment: Reversal of monocrotaline induced pulmonary hypertension in rats; assay type: in vivo, rat
Method: as §1

PAECs [6] = experiment: Tube formation in an angiogenesis assay; assay type: cell-based; settings: n=3, p<0.01
Method: as §1

PAECs [7] = experiment: PAEC survival; assay type: cell-based; settings: n=5, p<0.001
Method: as §1

[8] = system: PAECs harvested from IPAH patients; experiment: p-Smad 1/5/8 and Id1 expression in PAECs harvested from IPAH patients; assay type: cell-based, human; settings: PAECs from six different IPAH patients at the time of transplant
Method: as §1

[9] = 3-week sc treatment at established PAH

C=CC[C@@H]1/C=C(\C)C[C@H](C)C[C@H](OC)[C@H]2O[C@@](O)(C(=O)C(=O)N3CCCC[C@H]3C(=O)O[C@H](/C(C)=C/[C@@H]3CC[C@@H](O)[C@H](OC)C3)[C@H](C)[C@@H](O)CC1=O)[C@H](C)C[C@@H]2OC [FK-506]
immunosuppressive effect of decreased nuclear NFATc2 [1]: nor was an immunosuppressive effect of decreased nuclear NFATc2 measured
total or differential WBC count [1]: no effect
RVH [2, 9]: 0.34±0.02
RVSP [2, 9]: 39.5±0.6 mmHg
Neointima formation in small pulmonary arteries per total vessel number ([2]; alveolar wall and alveolar duct vessels): 16.2±5.8%
RV systolic pressure [3]: 21±2.3 mmHg
RVH (right ventricular hypertrophy) [3]: 26.9±4.5
concentration at 3 weeks [4]: 0.2 ng/mL
survival ([5]; after 3-week treatment started 3 weeks after monocrotaline 60 mg s.c.): 57%
RVSP ([5]; surviving rats after 3-week treatment, n=14): 39.5±4.7 mmHg

B1: BMP4: bone morphogenetic protein 4, used as a positive control (protein, UniProt P12644 293-408, looked up)
Bone morphogenetic protein 4: SPKHHSQRARKKNKNCRRHSLYVDFSDVGWNDWIVAPPGYQAFYCHGDCPFPLADHLNSTNHAIVQTLVNSVNSSIPKACCVPTELSAISMLYLDEYDKVVLKNYQEMVVEGCGCR
tube formation (PAECs [6]): induced tube formation
survival of PAECs (PAECs [7]): improved survival
Id1 expression [8]: 3/6 patients that did not respond
p-Smad 1/5/8 [8]: 3/6 patients that did not respond
